# Assay results reported in US20240269158A1, “THERAPEUTIC AGENTS AND METHODS FOR TREATMENT OF BARTONELLOSIS” (THE ADMINISTRATORS OF THE TULANE EDUCATIONAL FUND, priority 2021, published 2024).
# Like-named read-outs stand apart in the source and are kept apart here.
# Key:
# B. henselae [1] = settings: cited from earlier work
# [2] = tested on: B. henselae and B. vinsonii; experiment: Cell-free MBC assay, summary over both species; assay type: cell-based, Bartonella; settings: both species; Grace's insect media
# Experimental: (§1) Briefly, the bacterial culture that was treated with therapeutic agents for 96 hrs was collected into a 1.5 ml microcentrifuge tubes and centrifuged at 7000 rpm for 10 min. The supernatant was removed, and the bacterial pellet was washed with 1×PBS twice. The bacterial pellet was then resuspended in 100 μL of 1×PBS, plated onto blood agar plates and incubated at 37° C. with 5% CO2 for about 14 days. This assay was repeated three times with all the 6 different antibiotics (azlocillin, azithromycin, ceftriaxone, doxycycline, gentamicin and ampicillin) and at different concentrations.
# (§2) For this assay, both B. henselae and B. vinsonii were grown in Grace's insect media and were tested against all of the 6 antibiotics (ceftriaxone, doxycycline, gentamicin, azithromycin, azlocillin, ampicillin). […] However, ceftriaxone, gentamicin, azithromycin, and azlocillin were all bactericidal and completely eliminated the growth at concentrations below 10 µg/ml. Table 2 provides comparison of MBCs for B. henselae and B. vinsonii strains in cell-free liquid culture medium determined by incubating the bacteria with antibiotics in a 96-well plate and plating on tryptic soy agar supplemented with 5% sheep blood. Additionally, MBC for B. henselae determined by DH82 cell-based assay (right column) is provided.
# B. vinsonii [3] = experiment: Cell-free, liquid culture MBC assay; assay type: cell-based, B. vinsonii subsp. berkhoffii; settings: 96 hrs, plated on blood agar, read-out: MBC
# Experimental: (§3) The B. henselae strains used were San Antonio 2, 267HO04, a human clinical isolate and B. vinsonii subsp. berkhoffii. Both the bacteria were initially grown on tryptic soy agar (TSA) supplemented with 5% defibrinated sheep blood plates that were either pre-made (Remel, R01198) or homemade, in a humidified atmosphere at 37° C. with 5% CO2 for 7 days. For the preparation of liquid cultures, an individual well-grown colony from the plate was resuspended in 15 ml Falcon tubes containing 3 mL of either Schneider's insect media supplemented with 10% FBS, or Grace's insect media (Gibco, 11605-094) supplemented with 10% FBS, or BAPGM serum-free liquid media. The cultures grew for 7 more days in the atmosphere as above without shaking. The number of viable bacteria was determined by either plating serial dilutions of the culture on plates for CFU or by live/dead staining. Before every experiment, bacteria were mixed well and passed through 22-gauge needle to break large clumps of bacteria.
# as §1
# (§4) Therapeutic agent stocks were prepared in the following solvents: 10 mg/ml of ceftriaxone (USP), doxycycline (Fisher scientific, D9891-1G), gentamicin (Fisher scientific, 1405-41-0), ampicillin (Fisher scientific, 69-52-3) and azlocillin (Flightpath) in sterile cell culture grade water, whereas 5 mg/ml of azithromycin (Sigma, PZ0007-5MG) was dissolved in sterile cell culture grade DMSO. Antibiotics were then aliquoted and stored at either −80° C. or −20° C. until further use. On the day of assay, these stock concentrations were diluted to 1 mg/ml and 100 μg/ml in the respected bacterial culture media for MIC and cell-free, liquid culture MBC assays. For the DH82 cell-based MBC assay, antibiotics were diluted in EMEM media supplemented with 15% heat inactivated FBS.
# as §2
# B. henselae [4] = experiment: Cell-free, liquid culture MBC assay; assay type: cell-based, Bartonella henselae; settings: Bartonella henselae, 96 hrs, plated on blood agar, read-out: MBC
# Experimental: as §3, §1, §4
# For this assay, both B. henselae and B. vinsonii were grown in Grace's insect media and were tested against all of the 6 antibiotics (ceftriaxone, doxycycline, gentamicin, azithromycin, azlocillin, ampicillin).
# B. henselae [5] = experiment: MIC assay in liquid culture media (OD600); assay type: cell-based, Bartonella henselae; settings: Bartonella henselae, read-out: MIC
# Experimental: as §3
# (§5) Optical density (OD) of 7-day old bacterial liquid culture that was grown from an individual colony was measured using a spectrophotometer (Bio-Rad, SmartSpec 300, 170-2501). Bacterial culture was then diluted down to an OD of 0.1 ? 3×10^8 cfu/ml with the respective media.
# (§6) To determine the MIC of the antibiotics and for the visualization of the bacterial growth, a clear 96-well plate was used. Into each well of a 96-well plate, 50 μl of the 0.1 OD bacterial culture and 50 μl of the liquid media containing antibiotics were added to the wells bringing the total volume to 100 μl of 0.05 OD bacteria (CFU ? 1.5×10^7) in each well. Wells containing only bacteria with solvent used in the dilution of the antibiotics served as a positive control to verify the growth of bacteria. As a negative control, wells containing only media and solvents were used. Each concentration of diluted antibiotic was run in 4 replicates to minimize the error rate. The 96-well plate was covered with the lid and incubated at 37° C. with 5% CO2. OD of the culture was read after 48 hrs and 96 hrs using a hybrid multi-mode microplate reader (Biotek, Synergy H4 hybrid reader) at OD600. The assay was repeated three times.
# as §4
# (§7) The determination of susceptibility to therapeutic agents was performed in liquid culture media. Six different therapeutic agents were tested with multiple different concentrations against B. henselae and B. vinsonii. Therapeutic agent concentrations tested were as follows: Ceftriaxone 0.001, 0.01, 0.1, 0.3, 0.5, 1, 2, and 5 μg/ml; doxycycline 0.001, 0.01, 0.1, 0.3, 0.5, 1, 2, 5, and 10 μg/ml, gentamicin: 0.01, 0.1, 0.3, 0.5, 1, 2, 4, 8, and 16 μg/ml, and azithromycin: 0.001, 0.005, 0.02, 0.1, 0.3, 0.5, 1, 2, 5, and 10 μg/ml, were tested based on previous antibiotic susceptibility studies. The following azlocillin dilutions were included: 0.001, 0.005, 0.01, 0.02, 0.5, 1, 2, and 5 μg/ml. The ampicillin dilutions included were as follows: 0.001, 0.005, 0.01, 0.02, 0.5, 1, 2, 4, and 8 μg/ml. Both the species of Bartonella were susceptible to all the antibiotics that were used in BAPGM and Grace's culture liquid mediums. […]
# B. vinsonii [6] = experiment: MIC assay in liquid culture media (OD600); assay type: cell-based, B. vinsonii subsp. berkhoffii; settings: Grace's insect media, read-out: MIC
# Experimental: as §3, §5, §6, §4, §7
# [7] = tested on: intracellular B. henselae in DH82 cells; experiment: DH82 cell-based MBC assay (coculture); parameters: species or system Bartonella henselae (canine DH82 cells); settings: Bartonella henselae; B. henselae; DH82 cell-based assay; 96 hours; read-out: MBC
# Experimental: DH82 are a canine cell line having a macrophage-like morphology. Cells were initially cultured in T75-Flasks (Corning, 430641U) until confluency was reached and were split at a ratio of 1:4 for every 2-3 days. Cells were then seeded into either 24-well cell culture plates (Corning, 3526) for coculture assay or 8-well chamber slides (Millipore #PEGGS0816) for immunofluorescence assays. A total of 50,000 cells were seeded into each well of a 24-well plate or per chamber of an 8-well chamber slide with EMEM with 15% FBS and incubated for 24-48 hours before infections.
# as §4
# Bacteria (B. henselae) that were grown in Grace's insect media, were centrifuged at 7000 rpm for 10 min. The supernatant was removed and washed with 1×PBS for three times. After the washes, pellet was resuspended in EMEM media supplemented with 15% heat inactivated FBS. This bacterial suspension was then added to DH82 cells at a multiplicity of infection (MOI) of 1:50 and incubated for 2 hours. After 2 hours, unbound bacteria were removed by washing the cells with only EMEM media 3 times each 15 min wash. Cells were then incubated with EMEM+15% FBS media at 37° C. with 5% CO2 for 48 hours.
# After 48 hrs of incubation, the media was removed from the cells and the therapeutic agents that were diluted in EMEM+15% FBS was added. Each therapeutic agent was diluted at 11 different concentrations (16, 8, 4, 2, 1, 0.5, 0.25, 0.125, 0.062, 0.031, 0.0156 μg/ml), as described above and incubated for 96 hours. […] The bactericidal activity of the therapeutic agents were then evaluated by plating the lysed cells on blood agar plates. Briefly, infected DH82 cells were initially washed for 30 min twice to remove the antibiotics that were added. Later, cells were osmotically lysed by adding 1 ml of sterile ice-cold distilled water and incubated for 5 min on ice. The lysed cells were then plated onto blood agar plates and incubated at 37° C. with 5% CO2 for about 10 days to evaluate the growth of viable B. henselae. This experiment was conducted in duplicates and repeated twice with all 6 antibiotics including 11 different concentrations. The untreated infected cells were used as a positive control and untreated uninfected cells served as a negative control. The CFU counts are presented as average±standard deviation.
# To evaluate the bactericidal activity and to determine if these antibiotics could penetrate the eukaryotic […], a new DH82 cell-based coculture system was utilized. […] Uninfected cells stained with primary rabbit B. henselaehyperimmunized polyclonal (primary) and goat anti-rabbit IgG Alexa fluor 594 (secondary) antibodies were used as a negative control. As an isotype control, DH82 cells infected with B. henselae and incubated with primary rabbit IgG were used.
# B. henselae [8] = settings: E-test methodology or agar dilution method; cited from earlier work
MIC (B. henselae [5]; BAPGM) [µg/mL],Structure (SMILES),activity against growing bacterial culture (B. henselae [1]),activity against stationary phase B. henselae (B. henselae [1]),concentration that did not completely inhibit the growth of bacteria [2] [µg/mL],MBC (B. vinsonii [3]) [µg/mL],MBC (B. henselae [4]) [µg/mL],MIC (B. henselae [5]; Grace's insect media) [µg/mL],MIC (B. henselae [5]; Schneider's insect medium) [µg/mL],MIC (B. vinsonii [6]) [µg/mL],MBC [7] [µg/mL],inhibition in the growth of B. henselae in vitro (B. henselae [8])
,O=C(O)c1cn(C2CC2)c2cc(N3CCNCC3)c(F)cc2c1=O [ciprofloxacin],effective,very poor activity,,,,,,,,
,CC[C@H]1OC(=O)[C@H](C)[C@@H](O[C@H]2C[C@@](C)(OC)[C@@H](O)[C@H](C)O2)[C@H](C)[C@@H](O[C@@H]2O[C@H](C)C[C@H](N(C)C)[C@H]2O)[C@](C)(O)C[C@@H](C)C(=O)[C@H](C)[C@@H](O)[C@]1(C)O [crythromycin],effective,very poor activity,,,,,,,,
0.01 to 0.1,"C[C@H]1c2cccc(O)c2C(=O)C2=C(O)[C@]3(O)C(=O)C(C(N)=O)=C(O)[C@@H](N(C)C)[C@@H]3[C@@H](O)[C@@H]21 [Doxycycline, doxycycline]",,,> 10,> 10,> 10,0.01 to 0.1,> 0.3,0.01 to 0.1,> 16,
,"CC1(C)S[C@@H]2[C@H](NC(=O)[C@H](N)c3ccccc3)C(=O)N2[C@H]1C(=O)O [Ampicillin, ampicillin]",,,> 8,> 8,> 8,0.02 to 0.1,,0.01 to 0.02,> 16,
,CO[C@H]1/C=C/O[C@@]2(C)Oc3c(C)c(O)c4c(O)c(c(/C=N/N5CCN(C)CC5)c(O)c4c3C2=O)NC(=O)/C(C)=C\C=C\[C@H](C)[C@H](O)[C@@H](C)[C@@H](O)[C@@H](C)[C@H](OC(C)=O)[C@@H]1C [rifampin],effective,very poor activity,,,,,,,,Inhibition in the growth
